Patent US20250011878A1, “METHOD TO DETECT RNA BIOMARKERS” (ITALFARMACO SPA, priority 2021, published 2025)

Tested on: human monocytes
Test: RNAseq gene expression in purified human monocytes treated with ITF3756 and/or TNF-α
Assay type: cell-based
From the text: PBMCs used for the experiments were obtained from Buffy Coats of healthy donors (all samples tested negative for transmissible diseases as required for blood transfusion) separated over a Ficoll-Hypaque gradient (Biochrom). Monocytes were purified by negative selection from 100×10^6 PBMC using Pan Monocytes Isolation Kit (Milteny) following manufacturer's instructions. By Pan Monocyte Isolation kit untouched monocytes are isolated from human PBMCs and the simultaneous enrichment of classical (CD14^++CD16^−), non classical (CD14^+CD16^++) and intermediate (CD14^++CD16^+) monocytes is achieved. Non-monocytes, such as T cells, NK cells, B cells, dendritic cells, and basophils are indirectly magnetically labeled using a cocktail of biotin-conjugated antibodies and anti-Biotin MicroBeads. Briefly, 400 μL of Buffer (PBS 1×, 0.5% BSA and 2 mM EDTA), 100 μL of FcR Blocking Reagent and 100 μL of Biotin-Antibody Cocktail were added to PBMC, previously washed with PBS by centrifugation 300×g for 5 minutes, mixed and incubate for 5 minutes in the refrigerator (2-8° C.). After incubation, 300 μL of Buffer and 200 μL of anti-biotin microbeads were added to the cells, mixed and incubate further for 10 minutes in the refrigerator. After incubation cells were processed by subsequent magnetic cell separation. Cell suspension was applied onto the column and the flow-through containing unlabeled cells, representing the enriched monocytes, was collected. Purified monocytes were washed with Buffer by centrifugation 300×g for 5 minutes and counted in PBS. Purified monocytes (1,0×10^6/ml) were pre-treated for 2 h with ITF3756 1 μM or DMSO (0.005%) in 12-well plates in 1 ml final volume of complete medium (RPMI (Biochrom), FCS 10% and penicillin/streptomycin 1× (Sigma)). The cells were then stimulated or not with TNF-α (100 ng/mL, Peprotech) for 4h. After incubation with ITF3756 and TNF-α, the cells were collected, washed with PBS by centrifugation 300×g for 5 minutes and stored at −80° C. Samples were thawed on the bench for 2 minutes and total RNA was extracted with Trizol reagent (Thermo Fisher Scientific), following manufacturer's instructions. Briefly, Trizol reagent (0.75 ml Trizol per 5-10×10^6 cells) was added to the samples and the samples were incubated at room temperature (RT) for 5 minutes. After incubation, chloroform (150 μL per 0.75 mL Trizol) was added to the samples and after 3 minutes of incubation at RT, samples were centrifuged for 12000×g for 14 minutes at 4° C. After centrifugation, the mixture separates into 3 phases and RNA remains in the aqueous phase. The aqueous phase was removed for each sample and placed in new tubes, and isopropanol (0,375 ml per 0.75 ml of Trizol) was added in each tube. Samples was incubated for 30 minutes in the refrigerator (2-8° C.). After incubation, samples were centrifugated for 12000×g for 10 minutes at 4° C., the supernatant was removed and 75% ethanol (0.75 ml per 0.75 ml of Trizol) was added to samples. Samples were centrifuged for 7500×g for 5 minutes at 4° C., and the supernatant discarded. RNA was air dried on the bench for 5-10 minutes. RNA Samples was then resuspended in water (10-50 μL). The scheme of the experimental procedures carried out to generate the RNA sequence data is represented in FIG. 1. To determine the quantity and the integrity/purity of RNA samples, check controls were first performed by the Agilent Technologies 2100 Bioanalyzer using RNA 6000 LabChip® kit (Agilent #5067-1511). The Bioanalyzer is a bio-analytical device based on a combination of microfluidic chips, voltage-induced size separation in gel filled channels and laser-induced fluorescence (LIF) detection on a miniaturized scale. The RNA Integrity Number (RIN) software algorithm allows the classification of total RNA, based on a numbering system from 1 to 10, (with 1 being the most degraded and 10 being the most intact). […] Purified samples were processed using TruSeq RNA-Seq v2 Library Preparation Kit. […]

[1] = ITF3756 1 μM in combination with TNF-α 100 ng/mL, RNAseq
[2] = ITF3756 1 μM in the presence of TNF-α 100 ng/mL, RNAseq
[3] = ITF3756 + TNFα vs vehicle-treated control (don)
[4] = M2 marker, human monocytes, ITF3756 1 μM, RNAseq
[5] = single treatment (ITF3756 1 μM or TNF-α 100 ng/mL), RNAseq, vs control
[6] = single treatment (ITF3756 1 μM), RNAseq, vs control
[7] = single treatment vs vehicle-treated control (don), monocytes 4 h, padj<0.05
[8] = versus control, not shared with TNF-α or ITF3756+TNF-α

Question: Which CD40 gene expression (ITF3756 1 μM combined with TNF-α 100 ng/mL, RNAseq) does the source give for O=C(NO)c1ccc(Cn2nnnc2-c2cccs2)cc1 [ITF3756, N-hydroxy-4-((5-(thiophen-2-yl)-1 H-tetrazol-1-yl)methyl)benzamide] here?
Answer: slightly increases the upregulation of CD40 expression induced by TNF-α alone

Question: What about the ADA gene expression [1] of the same compound?
Answer: upregulation

Question: What about the FATP1/SLC27A1 gene expression [1] of the same compound?
Answer: the basal expression of the gene is maintained

Question: What about the IRF6 gene expression [1] of the same compound?
Answer: no effect

Question: What about the NBEAL2 gene expression [1] of the same compound?
Answer: increases the expression

Question: And the ANXA6 gene expression [2]?
Answer: the upregulation is even stronger and probably synergistic

Question: And the CD84 gene expression [2]?
Answer: downregulation is further enhanced

Question: What about the CD163 gene expression [2] of the same compound?
Answer: down-modulated

Question: And the CD204/MSR1 gene expression [2]?
Answer: strongly down-modulated

Question: What about the CD206/MRC1 gene expression [2] of the same compound?
Answer: strongly down-modulated

Question: And the CXCL2 gene expression [2]?
Answer: reverts the upregulation induce by TNF establishing a normal level of expression

Question: What about the LTBP4 gene expression [2] of the same compound?
Answer: counters this downregulation

Question: What about the RANK/TNFRSF11a gene expression [2] of the same compound?
Answer: downregulation of RANK/TNFRSF11a is increased compared to single treatments

Question: What about the STAB1 gene expression [2] of the same compound?
Answer: synergistically reduced

Question: What about the “Genes Down regulated (number of genes modulated)” value [3] of the same compound?
Answer: 2329

Question: What about the “Genes Up regulated (number of genes modulated)” value [3] of the same compound?
Answer: 2282

Question: What about the MMP9 gene expression (ITF3756+TNF-α, compared to untreated control, RNAseq) of the same compound?
Answer: No modulation

Question: And the “Fold change ADA” value [4]?
Answer: −1.9

Question: What about the “Fold change CD163” value [4] of the same compound?
Answer: −4

Question: And the “Fold change CD204/MSR1” value [4]?
Answer: −2.6

Question: And the “Fold change CD206/MRC1” value [4]?
Answer: −13.3

Question: What about the “Fold change MMP9” value [4] of the same compound?
Answer: −3.6

Question: And the “Fold change STAB1 (Stabilin-1/Clever-1)” value [4]?
Answer: −14

Question: What about the “downregulation of PD-L1 (CD274) gene expression” value (cells treated with TNF-α+ITF3756, RNAseq) of the same compound?
Answer: 59%

Question: What about the ADA gene expression [5] of the same compound?
Answer: downmodulated

Question: And the IRF6 gene expression [5]?
Answer: upregulates the expression

Question: What about the LTBP4 gene expression [5] of the same compound?
Answer: upregulates the expression

Question: What about the MMP9 gene expression (single treatment (ITF3756 1 μM or TNF-α 100 ng/mL), RNAseq, vs untreated control) of the same compound?
Answer: down-modulated

Question: What about the ANXA6 gene expression [6] of the same compound?
Answer: robust upregulation

Question: And the CD40 gene expression [6]?
Answer: upregulates

Question: And the CD84 gene expression [6]?
Answer: strongly downregulates

Question: And the CD163 gene expression [6]?
Answer: down-modulated

Question: What about the CD204/MSR1 gene expression [6] of the same compound?
Answer: down-modulated

Question: What about the CD206/MRC1 gene expression [6] of the same compound?
Answer: strongly down-modulated

Question: What about the CXCL2 gene expression [6] of the same compound?
Answer: decreases the expression

Question: And the CXCL3 gene expression [6]?
Answer: reduced the expression

Question: What about the FATP1/SLC27A1 gene expression [6] of the same compound?
Answer: up-regulates the expression

Question: And the NBEAL2 gene expression [6]?
Answer: increases the expression

Question: What about the RANK/TNFRSF11a gene expression [6] of the same compound?
Answer: strong downregulation

Question: And the STAB1 gene expression [6]?
Answer: strongly downregulated

Question: What about the CD276 gene expression (single treatment (ITF3756), vs control) of the same compound?
Answer: down-regulated the expression

Question: And the “Genes Down regulated (number of genes modulated)” value [7]?
Answer: 1503

Question: What about the “Genes Up regulated (number of genes modulated)” value [7] of the same compound?
Answer: 1499

Question: And the “genes specifically downregulated (Venn diagram)” value [8]?
Answer: 386

Question: And the “genes specifically upregulated (Venn diagram)” value [8]?
Answer: 537
